Measurements reported in US11951131B2, “Anti-SLAMF7 chimeric antigen receptors” (The United States of America, as represented by the …, priority 2018, dated 2024).

Key:
[1] = test system: IC9-Luc90-CD828Z CAR T cells; test: AP1903 abrogation of CAR T-cell activity in MM.1S tumor-bearing mice; type: in vivo, NSG mice
Protocol: (§1) First, MM.1S human SLAMF7^+ multiple myeloma cell line tumors were established in immunodeficient mice. In this model, the MM.1S cells formed a solid cutaneous mass. Measurable tumors were allowed to develop over 7 days, and then the mice were treated with a single intravenous infusion of MSGV1-IC9-Luc90-CD828Z-transduced human T cells. NSG mice (NOD.Cg-Prkdc^scid Il2rg^tm1Wjl/SzJ) from The Jackson Laboratory, Bar Harbor, Me., were used. Mice received intradermal injections of 4×10^6 MM.1S cells. The cells were suspended in a 1:1 mixture of MATRIGEL™ gelatinous protein mixture (BD Biosciences) and PBS (Phosphate-buffered saline) for injection. Tumors were allowed to grow for 7 days, and then each mouse received a single intravenous infusion of human T cells that were transduced with one of 3 CARs: IC9-Luc90-CD828Z (suicide gene+anti-SLAMF7 CAR), Luc90-CD828Z (anti-SLAMF7 CAR alone), or a negative-control anti-CD19 CAR Hu19-CD828Z. A 4th group was left untreated. All groups included 5 mice. After CAR T-cell infusion, the tumors were measured with calipers every 3 days. The longest length and the length perpendicular to the longest length and the tumor thickness were multiplied together to obtain the tumor volume in mm^3. When the longest length reached 15 mm, mice were sacrificed. Animal studies were approved by the National Cancer Institute Animal Care and Use Committee.
MM.1S tumors were established in NSG mice as described in Example 9. The mice were treated with 2×10^6 IC9-Luc90-CD828Z T cells. The mice received 5 mg/kg of AP1903 intraeritoneally for either 3 days or 12 days after the CAR T-cell infusion. […] Also levels of IC9-Luc90-CD828Z CART cells in the mice receiving AP1903 were reduced as compared to the mice receiving the vehicle.

IC9-expressing T cells = test: 6-hour and 48-hour post-rimiducid T cell death analysis; type: cell-based, human; settings: for elimination of transduced T cells by AP1903: 1, 10 or 100 ng/mL; for annexin V staining of residual CAR^+ T cells: AP1903 6 hours; for annexin V staining of residual CAR+ cells: AP1903 48 hours
Protocol: On day 8 of culture, 1 million T cells from cultures that were either untransduced or transduced with one of the anti-SLAMF7 CARs cells were suspended at 1×10^6 T cells/mL in AIM V™ media (Invitrogen) plus 300 IU of interleukin-2. One million cells were added to each of 4 wells of a 12-well plate. A different concentration of AP1903 (MedChem Express, Princeton, N.J.) from was added to each well. AP1903 is also referred to as rimiducid. The concentrations of AP1903 evaluated were: 0, 1, 10, or 100 ng/mL.
Six hours and 48 hours after these cultures were set up, the cells were counted, washed, and stained with Protein L as described above. Next, the cells were washed twice with PBS, re-suspended in Annexin V binding buffer (BD Biosciences), and incubated with allophycocyanin-conjugated Annexin V (BD Biosciences) and 7AAD (BD Biosciences) for 15 minutes (mins) at room temp. The cells were immediately analyzed by flow cytometry.

[2] = test system: MM.1S human SLAMF7^+ multiple myeloma solid tumors; test: MM.1S solid tumor model in NSG mice, anti-tumor efficacy; type: in vivo; settings: 2 million CAR^+ T cells per mouse, 5 mice per group (FIG. 17)
Protocol: as §1
FIGS. 16A-16B show a dose-titration of IC9-Luc90-CD828Z-expressing T cells. In this experiment, immunocompromised NSG mice were injected intradermally with 4×10^6 MM.1S cells to form a solid mass. Mice were then treated with a single infusion of 0.5×10^6, 2×10^6, or 8×10^6, IC9-Luc90-CD828Z-expressing T cells. […] The tumor volume curves end when the first mouse of a group was sacrificed.
MM.'S tumors were established in NSG mice as described in Example 9. FIGS. 17A-17B show results in which mice bearing MM.1S tumors were treated with T cells expressing one of 3 different CARs: IC9-Luc90-CD828Z (suicide gene+anti-SLAMF7 CAR), Luc90-CD828Z (anti-SLAMF7 CAR alone), or a negative-control anti-CD19 CAR Hu19-CD828Z. A 4th group was left untreated in both experiments. All groups included 5 mice. The CARP T cell dose was 2 million CARP T cells per mouse. There were 5 mice in all groups.

SLAMF7-K562 = test: IFN-gamma ELISA, CAR T cells cultured overnight with SLAMF7-K562 target cells; type: cell-based, human; settings: Table E; overnight culture
Excerpt: (§2) MM.1S is a SLAMF7^+ multiple myeloma cell line that was obtained from American Type Culture Collection (ATCC). A549 is a BCMA-negative lung cancer cell line (ATCC). TC71 is a BCMA-negative sarcoma cell line. CCRF-CEM, 293T, and A549 are SLAMF7-negative cell lines (ATCC). COL0207, HepG2, U251, Panc10.05, and TC71 are […] that were kind gifts from Dr. Steven Rosenberg, National Cancer Institute. SLAMF7-K562 are K562 cells (ATCC) which were transduced with the gene for full-length SLAMF7. SLAMF7-RPMI are RPMI8226 cells (ATCC) which were transduced with the gene for full-length SLAMF7. NGFR-K562 are K562 cells which were transduced with the gene for low-affinity nerve growth factor (Kochenderfer et al., J. Immunother., 32(7): 689-702 (2009)). All of the human samples mentioned were obtained from patients enrolled in IRB-approved clinical trials at the National Cancer Institute.
(§3) One-hundred thousand SLAMF7^+ or SLAMF7-negative target cells were combined with 100,000 CAR-transduced T cells in duplicate wells of a 96 well round bottom plate in 200 µL of AIM V™ medium (Invitrogen) plus 5% human serum. The plates were incubated at 37° C. for 18-20 hours. Following the incubation, ELISAs (enzyme-linked immunosorbent assays) for IFNγ were performed by using standard methods.
(§4) The T cells columns indicate whether T cells were transduced with Luc90-CD828Z, Luc63-CD828Z, or were untransduced. The % CAR^+ in Table B-1 was determined by staining the T cells with Protein L. Except for the % CAR^+ column, all values are pg/mL of IFN-gamma. T cells that were either untransduced or transduced with one of the indicated CARs were cultured with target cells overnight and a standard IFN-gamma ELISA was performed on the culture supernatant.
(§5) All values are pg/mL of IFN-gamma. T cells that were either untransduced or transduced with one of the indicated CARs were cultured with target cells overnight, and a standard IFN-gamma ELISA was performed on the culture supernatant.

SLAMF7^+ MM.1S cells = test: Cytotoxicity assay (4 hours, relative to CCRF-CEM cells); type: cell-based, human; settings: MM.1S relative to control CCRF-CEM cells (FIG. 8A)
Protocol: Cytotoxicity assays were conducted as previously described (see Kochenderfer et al., J. Immunother., 32(7): 689-702 (2009)). Cytotoxicity was measured by comparing survival of SLAMF7^+ target cells relative to the survival of negative-control CCRF-CEM cells. Both of these cell types were combined in the same tubes with CAR-transduced T cells. CCRF-CEM negative control cells were labeled with the fluorescent dye 5-(and -6)-(((4-chloromethyl)benzoyl)amino) tetramethylrhodamine (CMTMR) (Invitrogen), and SLAMF7^+ target cells were labeled with CFSE. Cocultures were set up in sterile 5 mL test tubes (BD Biosciences) in duplicate at multiple T cell to target cell ratios. The target cells contained in the tubes were 50,000 SLAMF7^+ target cells along with 50,000 CCRF-CEM negative-control cells. The cultures were incubated for 4 hours at 37° C. Immediately after the incubation, 7AAD (7-amino-actinomycin D) (BD Biosciences) was added, and flow cytometry acquisition was performed. For each T cell plus target-cell culture, the percent survival of SLAMF7^+ target cells was determined by dividing the percent live SLAMF7^+ cells by the percent live CCRF-CEM negative control cells. The corrected percent survival of SLAMF7^+ target cells was calculated by dividing the percent survival of SLAMF7^+ target cells in each T cell plus target cell culture by the ratio of the percent live SLAMF7^+ target cells to percent live CCRF-CEM negative-control cells in tubes containing only SLAMF7^+ target cells and CCRF-CEM cells without effector T cells. This correction was necessary to account for variation in the starting cell numbers and for spontaneous target cell death. Cytotoxicity was calculated as follows: the percent cytotoxicity of […] target cells=100−corrected percent survival of SLAMF7^+ target cells.

CCRF-CEM = test: IFN-gamma ELISA, CAR T cells with CCRF-CEM target cells; type: cell-based, human; settings: Table E
Excerpt: as §2, §3, §5

T cells only = test: IFN-gamma ELISA, T cells only (no target cells); type: cell-based, human; settings: Table E
Protocol: as §3, §4, §5
(§6) The values in the cells are pg/mL of IFN-gamma. T cells that were either untransduced or transduced with one of the indicated CARs were cultured with target cells overnight, and a standard IFN-gamma ELISA was performed on the culture supernatant. The concentrations of 0, 50, or 200 ng/mL at the top of each column indicates the concentration of soluble SLAMF7 added to all T cell plus target cell overnight cultures in that column. The soluble SLAMF7 was added at the beginning of the overnight culture.

MM.1S = test: IFN-gamma ELISA, CAR T cells with MM.1S target cells; type: cell-based, human; settings: Table E
Excerpt: as §2, §3, §5

SLAMF7-K562 target cells = test: CFSE proliferation assay; type: cell-based, human; settings: SLAMF7-K562 versus NGFR-K562 target cells, 4 days (FIGS. 8B, 8C)
Excerpt: Cocultures were set up in 24-well plates. Target cells included in cocultures were either 0.5×10^6 irradiated SLAMF7-K562 cells or 0.5×10^6 irradiated NGFR-K562 cells. The cocultures also included 1×10^6 T cells from cultures that had been transduced with either […]. The T cells were labeled with carboxy fluorescein diacetate succinimidyl ester (CFSE, Invitrogen) as previously described. The medium used in the cocultures was AIM V™ (Invitrogen) plus 5% human AB serum. IL-2 was not added to the medium. Four days after initiation, the live cells in each coculture were counted with trypan blue for dead cell exclusion, and flow cytometry was performed by Protein L staining.

NGFR-K562 = test: IFN-gamma ELISA, CAR T cells with NGFR-K562 target cells; type: cell-based, human; settings: Table E
Excerpt: as §2, §3, §4, §5, §6

[3] = T cells transduced with IC9-Luc90-CD828Z
[4] = T cells transduced with Luc90-CD828Z-IC9

## CC[C@H](C(=O)N1CCCC[C@H]1C(=O)O[C@H](CCc1ccc(OC)c(OC)c1)c1cccc(OCC(=O)NCCNC(=O)COc2cccc([C@@H](CCc3ccc(OC)c(OC)c3)OC(=O)[C@@H]3CCCCN3C(=O)[C@@H](CC)c3cc(OC)c(OC)c(OC)c3)c2)c1)c1cc(OC)c(OC)c(OC)c1 [AP1903]
[1]; 2×10^6 IC9-Luc90-CD828Z T cells, AP1903 5 mg/kg intraperitoneally (FIG. 18)
  tumor outcome in mice receiving AP1903 after CAR T cells: progressive tumors
[1]; AP1903 5 mg/kg compared to vehicle
  levels of IC9-Luc90-CD828Z CAR T cells in mice: reduced
IC9-expressing T cells; T cells transduced with IC9-Luc90-CD828Z, 6 hours
  elimination of transduced T cells by AP1903: most transduced cells exposed to either 1, 10, or 100 ng/mL of AP1903 were eliminated
IC9-expressing T cells; T cells transduced with IC9-Luc90-CD828Z, 48 hours
  elimination of transduced T cells by AP1903: most transduced cells exposed to either 1, 10, or 100 ng/mL of AP1903 were eliminated
IC9-expressing T cells; [3]
  annexin V staining of residual CAR^+ T cells: most residual CAR^+ T cells in the AP1903-treated cultures were annexin V^+
  annexin V staining of residual CAR+ cells: most residual CAR+ cells were annexin V^+
IC9-expressing T cells; T cells transduced with Luc90-CD828Z-IC9, 6 hours
  elimination of transduced T cells by AP1903: most transduced cells exposed to either 1, 10, or 100 ng/mL of AP1903 were eliminated
IC9-expressing T cells; T cells transduced with Luc90-CD828Z-IC9, 48 hours
  elimination of transduced T cells by AP1903: most transduced cells exposed to either 1, 10, or 100 ng/mL of AP1903 were eliminated
IC9-expressing T cells; [4]
  annexin V staining of residual CAR^+ T cells: most residual CAR^+ T cells in the AP1903-treated cultures were annexin V^+
  annexin V staining of residual CAR+ cells: most residual CAR+ cells were annexin V^+
IC9-expressing T cells; clinically-relevant range of concentrations tested (1-100 ng/mL)
  dependence of elimination on AP1903 concentration: did not depend on the concentration of AP1903

## Hu19-CD828Z: negative-control anti-CD19 CAR [reference compound]
[2]
  anti-tumor activity: progressive tumors

## Luc90-CD828Z-IC9: CAR plus suicide gene construct (SEQ ID NO: 30): Luc90-CD828Z, T2A, IC9 suicide gene 3′ to the CAR
SLAMF7-K562
  IFN-gamma, SLAMF7-K562: 2249 pg/mL
SLAMF7^+ MM.1S cells
  killing of SLAMF7^+ target cells: specifically killed the SLAMF7^+ MM.1S cells
CCRF-CEM
  IFN-gamma, CCRF-CEM: 42 pg/mL
T cells only
  IFN-gamma, T-cells Alone: 39 pg/mL
MM.1S
  IFN-gamma, MM.1S: 1333 pg/mL
SLAMF7-K562 target cells
  proliferation (CFSE dilution): proliferated more
NGFR-K562
  IFN-gamma, NGFR-K562: 33 pg/mL
